Source: patent publication US11124509B2, “Tri-substituted imidazoles for the inhibition of TGF beta and methods of treatment” (CLAVIUS PHARMACEUTICALS, LLC, priority 2017, dated 2021)
Structures can show the parent of a compound that is named as a salt. Where two headings read alike, the source gives them in different places.

Legend:
TGFBR1 (ALK5) = TGFBR1 (ALK5) (Homo sapiens (Human), UniProt P36897); test: LanthaScreen Eu Kinase Binding Assay TGFBR1 (ALK5) (ThermoFisher SelectScreen); settings: read-out: TβRI (ALK5) Binding IC50
Chain of TGFBR1 (ALK5) (P36897 34-503): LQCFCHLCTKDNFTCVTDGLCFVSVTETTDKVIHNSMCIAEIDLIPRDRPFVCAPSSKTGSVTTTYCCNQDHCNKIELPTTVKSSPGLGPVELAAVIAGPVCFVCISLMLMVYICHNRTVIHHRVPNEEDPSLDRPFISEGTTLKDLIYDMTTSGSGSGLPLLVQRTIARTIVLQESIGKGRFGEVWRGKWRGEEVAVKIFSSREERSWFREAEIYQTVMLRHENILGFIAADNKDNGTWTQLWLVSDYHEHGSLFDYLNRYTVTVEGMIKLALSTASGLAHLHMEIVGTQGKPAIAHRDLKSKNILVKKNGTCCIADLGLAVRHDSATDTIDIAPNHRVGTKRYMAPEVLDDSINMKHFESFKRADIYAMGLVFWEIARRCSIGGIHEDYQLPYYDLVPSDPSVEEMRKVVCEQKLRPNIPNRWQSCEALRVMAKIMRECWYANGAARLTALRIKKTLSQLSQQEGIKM
Procedure: (§1) Exemplified compounds were confirmed to inhibit ALK5 activity in enzyme and cellular assays in the following assay systems conducted by ThermoFisher in Madison, Wis. according to their commercially available protocols.
ThermoFisher SelectScreen™ Biochemical Kinase Profiling Service, LanthaScreen™Eu Kinase Binding Assay TGFBR1 (ALK5)
Exemplified compounds were screened in 1% DMSO (final concentration) by 3-fold serial dilutions from 10,000 nM to 0.316 nM to produce an IC50 or at single concentrations of 10,000, 1000 and 100 nM according to the following protocol. To low volume, white 384-well plates (Greiner Cat #784207) add 160 nL 100× compound in 100% DMSO, 3.84 uL kinase buffer (50 mM HEPES, pH 7.5, 0.01% BRIJ-35, 10 mM MgCl2, 1 mM EGTA), 8 uL 2× kinase/antibody mixture in kinase buffer (final ALK5 concentration of 5 nM; final Eu-anti-GST antibody concentration of 2 nM), 4 uL 4× Tracer #178 in kinase buffer (final concentration of 5 nM). Gently shake the plates for 30 seconds and incubate at room temperature for 1 hour before reading fluorescence on a plate reader. Percent inhibition was determined compared to DMSO only control (maximal ALK5 tracer binding) and sigmoidal dose response curve fit yielded IC50 values as indicated in Table 2.

[1] = system: TGF-beta 1 stimulated SBE-b1a HEK 293T cells; test: GeneBLAzer beta-lactamase reporter, TGF-beta 1 stimulated SBE-b1a HEK 293T cell-based assay (ThermoFisher SelectScreen); settings: TGF-beta 1 0.03 nM, 5 hours, inhibitor 10,000 nM to 0.316 nM, sigmoidal dose response curve fit, read-out: Cells (SBE_HEK293T) IC50
Procedure: as §1
ThermoFisher SelectScreen™ Cell-Based Pathway Profiling Service GeneBLAzer Beta-Lactamase (b1a) Reporter Technology—TGF-Beta 1 Stimulated SBE-b1a HEK 293T Cell-Based Assay
SBE-b1a HEK 293T cells were thawed and re-suspended in Assay Media (OPTI-MEM, 0.5% dialyzed FBS, 0.1 mM NEAA, 1 mM Sodium Pyruvate, 100 U/mL/100 μg/mL Pen/Strep) to a concentration of 625,000 cells/mL. 32 μL of cell suspension (20,000 cells) was added to each well of a 384-well Poly-D-Lysine assay plate. Cells in Assay Media were incubated for 16-24 hours in the plate at 37° C./5% CO2 in a humidified incubator. 4 μL of a 10× serial dilution of ALK5 inhibitors (10x=100,000-3.16 nM) was added to appropriate wells of the plate and pre-incubated at 37° C./5% CO2 in a humidified incubator with cells for 30 minutes. Final concentration of inhibitor ranged from 10,000 nM to 0.316 nM. 4 μL of 10× TGF-beta 1 (final concentration of 0.03 nM) was added to wells containing the inhibitors. The plate was incubated for 5 hours at 37° C./5% CO2 in a humidified incubator. 8 μL of 1 μM Substrate Loading Solution was added to each well and the plate was incubated for 2 hours at room temperature before being read on a fluorescence plate reader. Percent inhibition was determined compared to DMSO only control (maximal TGF-beta 1 stimulation) and sigmoidal dose response curve fit yielded IC50 values as indicated in Table 2.

[2] = 3-fold serial dilutions 10,000 nM to 0.316 nM, ALK5 5 nM, Tracer #178 5 nM, sigmoidal dose response curve fit
[3] = compounds marked with an asterisk: evaluated at three concentrations, IC50 depicted as less than the lowest concentration producing >50% inhibition

Cn1ccc(-c2nc(CNc3ccccc3F)[nH]c2-c2ccc3ncnn3c2)n1 [Compound 2, N-((5-([1,2,4]triazolo[1,5-a]pyridin-6-yl)-4-(1-methyl-1H-pyrazol-3-yl)-1H-imidazol-2-yl)methyl)-2-fluoroaniline hydrochloride]
IC50 (TGFBR1 (ALK5); [2]): 1370 nM
IC50 ([1]; Homo sapiens, HEK-293T): > 10000 nM

Cn1ccc(-c2nc(CNc3ccccc3)[nH]c2-c2ccc3ncnn3c2)n1 [Compound 4, N-((5-([1,2,4]triazolo[1,5-a]pyridin-6-yl)-4-(1-methyl-1H-pyrazol-3-yl)-1H-imidazol-2-yl)methyl)aniline hydrochloride]
IC50 (TGFBR1 (ALK5); [2]): 1370 nM
IC50 ([1]; Homo sapiens, HEK-293T): > 10000 nM

Cn1ccc(-c2nc(CNc3cccc(F)c3)[nH]c2-c2ccc3ncnn3c2)n1 [Compound 6, N-((5-([1,2,4]triazolo[1,5-a]pyridin-6-yl)-4-(1-methyl-1H-pyrazol-3-yl)-1H-imidazol-2-yl)methyl)-3-fluoroaniline hydrochloride]
IC50 (TGFBR1 (ALK5); [2]): 354 nM
IC50 ([1]; Homo sapiens, HEK-293T): 3870 nM

Cn1ccc(-c2nc(CNc3ccc(F)cc3)[nH]c2-c2ccc3ncnn3c2)n1 [Compound 8, N-((5-([1,2,4]triazolo[1,5-a]pyridin-6-yl)-4-(1-methyl-1H-pyrazol-3-yl)-1H-imidazol-2-yl)methyl)-4-fluoroaniline hydrochloride]
IC50 (TGFBR1 (ALK5); [2]): 811 nM
IC50 ([1]; Homo sapiens, HEK-293T): > 10000 nM

CC(C)n1ccc(-c2nc(CNc3ccccc3)[nH]c2-c2ccc3ncnn3c2)n1 [Compound 10, N-((5-([1,2,4]triazolo[1,5-a]pyridin-6-yl)-4-(1-isopropyl-1H-pyrazol-3-yl)-1H-imidazol-2-yl)methyl)aniline hydrochloride]
IC50 (TGFBR1 (ALK5); [2]): 264 nM
IC50 ([1]; Homo sapiens, HEK-293T): 2660 nM

Cn1ccc(-c2nc(CNc3ccc(Cl)cc3)[nH]c2-c2ccc3ncnn3c2)n1 [Compound 12, N-((5-([1,2,4]triazolo[1,5-a]pyridin-6-yl)-4-(1-methyl-1H-pyrazol-3-yl)-1H-imidazol-2-yl)methyl)-4-chloroaniline hydrochloride]
IC50 ([1]; Homo sapiens, HEK-293T): > 10000 nM

Cn1ccc(-c2nc(CNc3cccc(C#N)c3)[nH]c2-c2ccc3ncnn3c2)n1 [Compound 16, 3-(((5-([1,2,4]triazolo[1,5-a]pyridin-6-yl)-4-(1-methyl-1H-pyrazol-3-yl)-1H-imidazol-2-yl)methyl)amino)benzonitrile hydrochloride]
IC50 (TGFBR1 (ALK5); [3]): < 1000 nM
IC50 ([1]; Homo sapiens, HEK-293T): 3570 nM

CC(C)n1ccc(-c2nc(CNc3cccc(F)c3)[nH]c2-c2ccc3ncnn3c2)n1 [Compound 20, N-((5-([1,2,4]triazolo[1,5-a]pyridin-6-yl)-4-(1-isopropyl-1H-pyrazol-3-yl)-1H-imidazol-2-yl)methyl)-3-fluoroaniline hydrochloride]
IC50 (TGFBR1 (ALK5); [3]): < 100 nM
IC50 ([1]; Homo sapiens, HEK-293T): 1270 nM

CC(C)n1ccc(-c2nc(CNc3cccc(F)c3)[nH]c2-c2ccc3nccnc3c2)n1 [Compound 22, 3-fluoro-N-((4-(1-isopropyl-1H-pyrazol-3-yl)-5-(quinoxalin-6-yl)-1H-imidazol-2-yl)methyl)aniline hydrochloride]
IC50 (TGFBR1 (ALK5); [3]): < 100 nM
IC50 ([1]; Homo sapiens, HEK-293T): 1090 nM

Cn1ccc(-c2nc(CNc3cccc(F)c3)[nH]c2-c2ccc3ncccc3c2)n1 [Compound 24]
IC50 (TGFBR1 (ALK5); [3]): < 200 nM
IC50 ([1]; Homo sapiens, HEK-293T): 1930 nM

CC(C)n1ccc(-c2nc(CNc3cccc(F)c3)[nH]c2-c2ccc3ncccc3c2)n1 [Compound 26, 3-fluoro-N-((4-(1-isopropyl-1H-pyrazol-3-yl)-5-(quinolin-6-yl)-1H-imidazol-2-yl)methyl)aniline hydrochloride]
IC50 (TGFBR1 (ALK5); [3]): < 100 nM

CC(C)n1ccc(-c2nc(CNc3cccc(F)c3)[nH]c2-c2ccc3ncc(C#N)n3n2)n1 [Compound 27]
IC50 (TGFBR1 (ALK5); [3]): < 100 nM

CC(C)n1ccc(-c2nc(CNc3cccc(C#N)c3)[nH]c2-c2ccc3ncnn3c2)n1 [Compound 28]
IC50 (TGFBR1 (ALK5); [3]): < 100 nM
IC50 ([1]; Homo sapiens, HEK-293T): 757 nM

CC(C)n1ccc(-c2nc(CNc3cccc(C(N)=O)c3)[nH]c2-c2ccc3ncnn3c2)n1 [Compound 29, 3-(((5-([1,2,4]triazolo[1,5-a]pyridin-6-yl)-4-(1-isopropyl-1H-pyrazol-3-yl)-1H-imidazol-2-yl)methyl)amino)benzamide]
IC50 (TGFBR1 (ALK5); [3]): < 100 nM
IC50 ([1]; Homo sapiens, HEK-293T): 4620 nM

Cn1ccc(-c2nc(CNc3ccccc3F)[nH]c2-c2ccc3ncccc3c2)n1 [Compound 31, 2-fluoro-N-((4-(1-methyl-1H-pyrazol-3-yl)-5-(quinolin-6-yl)-1H-imidazol-2-yl)methyl)aniline hydrochloride]
IC50 (TGFBR1 (ALK5); [3]): < 1000 nM
IC50 ([1]; Homo sapiens, HEK-293T): 8930 nM

CC(C)n1ccc(-c2nc(CNc3ccccc3F)[nH]c2-c2ccc3ncccc3c2)n1 [Compound 33, 2-fluoro-N-((4-(1-isopropyl-1H-pyrazol-3-yl)-5-(quinolin-6-yl)-1H-imidazol-2-yl)methyl)aniline hydrochloride]
IC50 (TGFBR1 (ALK5); [3]): < 200 nM
IC50 ([1]; Homo sapiens, HEK-293T): 9120 nM

CC(C)n1ccc(-c2nc(CNc3cccc(F)c3)[nH]c2-c2ccc3ncc(C(N)=O)n3n2)n1 [Compound 34]
IC50 (TGFBR1 (ALK5); [2]): 49 nM
IC50 ([1]; Homo sapiens, HEK-293T): 379 nM

CC(C)n1ccc(-c2nc(CNc3cc(F)cc(F)c3)[nH]c2-c2ccc3ncnn3c2)n1 [Compound 36, N-((5-([1,2,4]triazolo[1,5-a]pyridin-6-yl)-4-(1-isopropyl-1H-pyrazol-3-yl)-1H-imidazol-2-yl)methyl)-3,5-difluoroaniline hydrochloride]
IC50 (TGFBR1 (ALK5); [2]): 103 nM
IC50 ([1]; Homo sapiens, HEK-293T): 507 nM

Cn1ccc(-c2nc(-c3ccc(C(N)=O)cc3)[nH]c2-c2ccc3ncsc3c2)n1 [Compound 37]
IC50 (TGFBR1 (ALK5); [2]): 5.6 nM
IC50 ([1]; Homo sapiens, HEK-293T): 53.2 nM

CC(C)n1ccc(-c2nc(CNc3cccc(C#N)c3)[nH]c2-c2ccc3ncc(C(N)=O)n3n2)n1 [Compound 38]
IC50 (TGFBR1 (ALK5); [3]): < 100 nM
IC50 ([1]; Homo sapiens, HEK-293T): 3180 nM

CC(C)n1ccc(-c2nc(CNc3cc(F)cc(F)c3)[nH]c2-c2ccc3nccnc3c2)n1 [Compound 39]
IC50 ([1]; Homo sapiens, HEK-293T): 53.6 nM

CC(C)n1ccc(-c2nc(CNc3cccc(-n4cccn4)c3)[nH]c2-c2ccc3nccnc3c2)n1 [Compound 40]
IC50 (TGFBR1 (ALK5); [3]): < 100 nM
IC50 ([1]; Homo sapiens, HEK-293T): 1050 nM

CC(C)n1ccc(-c2nc(CNc3cccc(C#N)c3)[nH]c2-c2ccc3nccnc3c2)n1 [Compound 41]
IC50 (TGFBR1 (ALK5); [2]): 33 nM
IC50 ([1]; Homo sapiens, HEK-293T): 77.5 nM

Cn1ccc(-c2nc(-c3ccc(C#N)cc3)[nH]c2-c2ccc3nccnc3c2)n1 [Compound 42]
IC50 (TGFBR1 (ALK5); [3]): < 1000 nM

CC(C)n1ccc(-c2nc(CNc3ccc(F)c(F)c3)[nH]c2-c2ccc3nccnc3c2)n1 [Compound 48]
IC50 (TGFBR1 (ALK5); [3]): < 100 nM

CC(C)n1ccc(-c2nc(CNc3ccc(Cl)c(F)c3)[nH]c2-c2ccc3nccnc3c2)n1 [Compound 49]
IC50 (TGFBR1 (ALK5); [3]): < 1000 nM

CC(C)n1ccc(-c2nc(CNc3cc(F)cc(C#N)c3)[nH]c2-c2ccc3nccnc3c2)n1 [Compound 50]
IC50 ([1]; Homo sapiens, HEK-293T): 1070 nM

CC(C)n1ccc(-c2nc(CNc3ccc(Cl)c(Cl)c3)[nH]c2-c2ccc3nccnc3c2)n1 [Compound 51]
IC50 (TGFBR1 (ALK5); [2]): 260 nM

CC(C)n1ccc(-c2nc[nH]c2-c2ccc3nccnc3c2)n1 [Compound 53, 6-(4-(1-isopropyl-1H-pyrazol-3-yl)-1H-imidazol-5-yl)quinoxaline hydrochloride]
IC50 (TGFBR1 (ALK5); [3]): < 1000 nM

CC(C)n1ccc(-c2nc(-c3ccc(C(N)=O)cc3)[nH]c2-c2ccc3nccnc3c2)n1 [Compound 59]
IC50 (TGFBR1 (ALK5); [2]): 889 nM

N#Cc1ccc(-c2nc(-c3ccn(C(F)F)n3)c(-c3ccc4ncsc4c3)[nH]2)cc1 [Compound 60]
IC50 (TGFBR1 (ALK5); [2]): 71.7 nM

Cn1ccc(-c2nc(-c3ccc(C(N)=O)cc3)[nH]c2-c2ccc3c(c2)OCO3)n1 [Compound 67]
IC50 (TGFBR1 (ALK5); [2]): 50 nM

Fc1cc(F)cc(NCc2nc(-c3ccn(C4CC4)n3)c(-c3ccc4ncnn4c3)[nH]2)c1 [Compound 69]
IC50 (TGFBR1 (ALK5); [2]): 3 nM

N-((5-([1,2,4]triazolo[1,5-a]pyridin-6-yl)-4-(1-methyl-1H-pyrazol-3-yl)-1H-imidazol-2-yl)methyl)-4-chloroaniline hydrochloride [Compound 14]
IC50 [1]: > 10000 nM
